Assay results: US7507721B2, “Macrolides with antiinflammatory activity” (Zambon Group S.p.A., priority 2004, dated 2009)

Tested on: PMA-induced oedema in mouse ear
Assay: Acute contact dermatitis: inhibition of PMA/TPA-induced oedema in mouse ear
Assay type: in vivo
Conditions: 6 h, CD1 mice, 500 μg/ear topical in TPDS, 30 minutes before TPA 0.01% in acetone, ear weight difference after six hours vs TPA only
Protocol: The antiinflammatory activity has been evaluated as inhibition of PMA-induced oedema in mouse ear (Phorbol Myristate Acetate).
A) Acute contact dermatitis.
Groups of 5 CD1 mice (18-24 g) were used.
All the macrolide derivatives were dissolved in the Trans-phase Delivery System (TPDS) vehicle containing 10% benzyl alcohol, 40% acetone and 50% isopropanol.
15 microliters of the compounds (500 μg/ear), dissolved in TPDS, were applied topically onto the inner surface of an ear; after 30 minutes 12 microliters of a solution of acetate of tetradecanoyl-phorbol (TPA) with the concentration of 0.01% dissolved in acetone were applied onto the same area.
After six hours the animals were sacrified by inhalation of CO2.
The oedema level was calculated by detracting the weight of a defined portion of auricular ala of the not treated ear to the one of the treated controlateral ear. To determine the oedema remission level the weight difference of the groups treated with TPA+macrolides was compared with the ones of those treated with TPA only. The activity of the macrolides was measured by using the modified method of Zunic et coll. (1998): MDL (Lysyl) GDP, a non-toxil muramyl dipeptide derivative inhibits, cytokine production by activated macrophages and protects mice from phorbol ester-and oxazolone-induced inflammation (J. Invest Dermatol., 111(1), 77-82).
The data relating to erythromycin concern the treatment in single dose with 500 μg/ear.

Row | Compound | inhibition in vivo at 500 µg/ear [%]
1 | CC[C@H]1OC(=O)[C@H](C)[C@@H](O[C@H]2C[C@@](C)(OC)[C@@H](O)[C@H](C)O2)[C@H](C)[C@@H](O[C@@H]2O[C@H](C)C[C@H](N(C)C)[C@H]2O)[C@](C)(O)C[C@@H](C)CN(C)[C@H](C)[C@@H](O)[C@]1(C)O [Azithromycin, reference compound] | 40
2 | CC[C@H]1OC(=O)[C@H](C)[C@@H](O)[C@H](C)[C@@H](O[C@@H]2O[C@H](C)C[C@H](N(C)C(=O)c3ccccc3)[C@H]2O)C(C)(OC)C[C@@H](C)C(=O)[C@H](C)[C@@H](O)[C@]1(C)O (stereo partly drawn) [Compound 15] | 74.3
3 | CC[C@H]1OC(=O)[C@H](C)[C@@H](O)[C@H](C)[C@@H](O[C@@H]2O[C@H](C)C[C@H](N(C)C(=O)c3ccco3)[C@H]2O)C(C)(O)C[C@@H](C)[C@H](O)[C@H](C)[C@@H](O)[C@]1(C)O (stereo partly drawn) [Compound 4] | 64.4
4 | CC[C@H]1OC(=O)[C@H](C)[C@@H](O)[C@H](C)[C@@H](O[C@@H]2O[C@H](C)C[C@H](N(C)C(=O)c3ccc(C)cc3)[C@H]2O)C(C)(O)C[C@@H](C)[C@H](O)[C@H](C)[C@@H](O)[C@]1(C)O (stereo partly drawn) [Compound 6] | 77.8
5 | CC[C@H]1OC(=O)[C@H](C)[C@@H](O)[C@H](C)[C@@H](O[C@@H]2O[C@H](C)C[C@H](N(C)C(=O)CSc3ccccc3)[C@H]2O)C(C)(O)C[C@@H](C)[C@H](O)[C@H](C)[C@@H](O)[C@]1(C)O (stereo partly drawn) [Compound 8] | 57.6
6 | CC[C@H]1OC(=O)[C@H](C)[C@@H](O)[C@H](C)[C@@H](O[C@@H]2O[C@H](C)C[C@H](N(C)C(=O)Cc3ccccc3)[C@H]2O)C(C)(O)C[C@@H](C)[C@H](O)[C@H](C)[C@@H](O)[C@]1(C)O (stereo partly drawn) [Compound 2] | 88.1
7 | CC[C@H]1OC(=O)[C@H](C)[C@@H](O)[C@H](C)[C@@H](O[C@@H]2O[C@H](C)C[C@H](N(C)C(=O)c3cccs3)[C@H]2O)C(C)(O)C[C@@H](C)/C(=N\O)[C@H](C)[C@@H](O)[C@]1(C)O (stereo partly drawn) [Compound 23] | 86.8
8 | CC[C@H]1OC(=O)[C@H](C)[C@@H](O)[C@H](C)[C@@H](O[C@@H]2O[C@H](C)C[C@H](N(C)C(=O)c3ccccc3)[C@H]2O)C(C)(O)C[C@@H](C)[C@H](O)[C@H](C)[C@@H](O)[C@]1(C)O (stereo partly drawn) [Compound 3] | 89.9
9 | CC[C@H]1OC(=O)[C@H](C)[C@@H](O)[C@H](C)[C@@H](O[C@@H]2O[C@H](C)C[C@H](N(C)C(=O)COC)[C@H]2O)C(C)(O)C[C@@H](C)/C(=N\O)[C@H](C)[C@@H](O)[C@]1(C)O (stereo partly drawn) [Compound 19] | 86.1
10 | CCCCCCCC(=O)N(C)[C@H]1C[C@@H](C)O[C@@H](O[C@@H]2[C@@H](C)[C@H](O)[C@@H](C)C(=O)O[C@H](CC)[C@@](C)(O)[C@H](O)[C@@H](C)[C@@H](O)[C@H](C)CC2(C)O)[C@@H]1O (stereo partly drawn) [Compound 9] | 74.2
11 | CC[C@H]1OC(=O)[C@H](C)[C@@H](O)[C@H](C)[C@@H](O[C@@H]2O[C@H](C)C[C@H](N(C)C(=O)C3CCCCC3)[C@H]2O)C(C)(O)C[C@@H](C)[C@H](O)[C@H](C)[C@@H](O)[C@]1(C)O (stereo partly drawn) [Compound 10] | 89.2
12 | CC[C@H]1OC(=O)[C@H](C)[C@@H](O)[C@H](C)[C@@H](O[C@@H]2O[C@H](C)C[C@H](N(C)C(=O)c3cccnc3)[C@H]2O)C(C)(O)C[C@@H](C)/C(=N\O)[C@H](C)[C@@H](O)[C@]1(C)O (stereo partly drawn) [Compound 22] | 74.3
13 | CC[C@H]1OC(=O)[C@H](C)[C@@H](O)[C@H](C)[C@@H](O[C@@H]2O[C@H](C)C[C@H](N(C)C(=O)Cc3cccs3)[C@H]2O)C(C)(O)C[C@@H](C)/C(=N\O)[C@H](C)[C@@H](O)[C@]1(C)O (stereo partly drawn) [Compound 25] | 79.3
14 | CC[C@H]1OC(=O)[C@H](C)[C@@H](O)[C@H](C)[C@@H](O[C@@H]2O[C@H](C)C[C@H](N(C)C(=O)c3ccc(F)cc3)[C@H]2O)C(C)(OC)C[C@@H](C)C(=O)[C@H](C)[C@@H](O)[C@]1(C)O (stereo partly drawn) [Compound 16] | 81.1
15 | CC[C@H]1OC(=O)[C@H](C)[C@@H](O)[C@H](C)[C@@H](O[C@@H]2O[C@H](C)C[C@H](N(C)C(=O)C(C)(C)C)[C@H]2O)C(C)(O)C[C@@H](C)/C(=N\O)[C@H](C)[C@@H](O)[C@]1(C)O (stereo partly drawn) [Compound 26] | 68.6
16 | CC[C@H]1OC(=O)[C@H](C)[C@@H](O)[C@H](C)[C@@H](O[C@@H]2O[C@H](C)C[C@H](N(C)C(=O)c3cccs3)[C@@H]2O)[C@](C)(O)C[C@H](C)/C(=N\OC(=O)c2cccs2)[C@@H](C)[C@H](O)[C@]1(C)O [Compound 24] | 41.3
17 | CC[C@H]1OC(=O)[C@H](C)[C@@H](O)[C@H](C)[C@@H](O[C@@H]2O[C@H](C)C[C@H](N(C)C(=O)Cc3cccs3)[C@H]2O)C(C)(O)C[C@@H](C)[C@H](O)[C@H](C)[C@@H](O)[C@]1(C)O (stereo partly drawn) [Compound 5] | 53.7
18 | CC[C@H]1OC(=O)[C@H](C)[C@@H](O)[C@H](C)[C@@H](O[C@@H]2O[C@H](C)C[C@H](N(C)S(=O)(=O)c3ccc(C)cc3)[C@H]2O)C(C)(O)C[C@@H](C)[C@H](O)[C@H](C)[C@@H](O)[C@]1(C)O (stereo partly drawn) [Compound 12] | 72.2
19 | CC[C@H]1OC(=O)[C@H](C)[C@@H](O)[C@H](C)[C@@H](O[C@@H]2O[C@H](C)C[C@H](N(C)C(=O)Cc3cccs3)[C@H]2O)C(C)(O)C[C@@H](C)/C(=N\OC(=O)Cc2cccs2)[C@H](C)[C@@H](O)[C@]1(C)O (stereo partly drawn) [Compound 27] | 61.4
20 | CCNC(=O)N(C)[C@H]1C[C@@H](C)O[C@@H](O[C@@H]2[C@@H](C)[C@H](O)[C@@H](C)C(=O)O[C@H](CC)[C@@](C)(O)[C@H](O)[C@@H](C)[C@@H](O)[C@H](C)CC2(C)O)[C@@H]1O (stereo partly drawn) [Compound 13] | 80.3
21 | CC[C@H]1OC(=O)[C@H](C)[C@@H](O)[C@H](C)[C@@H](O[C@@H]2O[C@H](C)C[C@H](N(C)C(=O)COCc3cc(OC)ccn3)[C@H]2O)C(C)(O)C[C@@H](C)C(O)[C@H](C)[C@@H](O)[C@]1(C)O (stereo partly drawn) [Compound 1] | 61.5
22 | CC[C@H]1OC(=O)[C@H](C)[C@@H](O)[C@H](C)[C@@H](O[C@@H]2O[C@H](C)C[C@H](N(C)S(C)(=O)=O)[C@H]2O)C(C)(O)C[C@@H](C)[C@H](O)[C@H](C)[C@@H](O)[C@]1(C)O (stereo partly drawn) [Compound 11] | 55.3
23 | CC[C@H]1OC(=O)[C@H](C)[C@@H](O)[C@H](C)[C@@H](O[C@@H]2O[C@H](C)C[C@H](N(C)C(=O)Nc3ccccc3)[C@H]2O)C(C)(O)C[C@@H](C)[C@H](O)[C@H](C)[C@@H](O)[C@]1(C)O (stereo partly drawn) [Compound 14] | 89.9
24 | CC[C@H]1OC(=O)[C@H](C)[C@@H](O)[C@H](C)[C@@H](O[C@@H]2O[C@H](C)C[C@H](N(C)C(=O)c3cccnc3)[C@H]2O)C(C)(O)C[C@@H](C)[C@H](O)[C@H](C)[C@@H](O)[C@]1(C)O (stereo partly drawn) [Compound 7] | 46.1
25 | CC[C@H]1OC(=O)[C@H](C)[C@@H](O[C@H]2C[C@@](C)(OC)[C@@H](O)[C@H](C)O2)[C@H](C)[C@@H](O[C@@H]2O[C@H](C)C[C@H](N(C)C)[C@H]2O)[C@](C)(O)C[C@@H](C)C(=O)[C@H](C)[C@@H](O)[C@]1(C)O [Erythromycin, reference compound] | 42.5
26 | CC[C@H]1OC(=O)[C@H](C)[C@@H](O)[C@H](C)[C@@H](O[C@@H]2O[C@H](C)C[C@H](N(C)C(=O)c3ccc(OC)cc3)[C@H]2O)C(C)(O)C[C@@H](C)/C(=N\OC(=O)c2ccc(OC)cc2)[C@H](C)[C@@H](O)[C@]1(C)O (stereo partly drawn) [Compound 21] | 53.3
27 | CC[C@H]1OC(=O)[C@H](C)[C@@H](O)[C@H](C)[C@@H](O[C@@H]2O[C@H](C)C[C@H](N(C)C(=O)c3ccc(OC)cc3)[C@H]2O)C(C)(O)C[C@@H](C)/C(=N\O)[C@H](C)[C@@H](O)[C@]1(C)O (stereo partly drawn) [Compound 20] | 83.2
28 | CC[C@H]1OC(=O)[C@H](C)[C@@H](O)[C@H](C)[C@@H](O[C@@H]2O[C@H](C)C[C@H](N(C)C(=O)C(C)(C)C)[C@H]2O)C(C)(O)C[C@@H](C)/C(=N\OC(=O)C(C)(C)C)[C@H](C)[C@@H](O)[C@]1(C)O (stereo partly drawn) [Compound 17] | 51.2
29 | CC[C@H]1OC(=O)[C@H](C)[C@@H](O)[C@H](C)[C@@H](O[C@@H]2O[C@H](C)C[C@H](N(C)C(C)=O)[C@H]2O)C(C)(O)C[C@@H](C)/C(=N\OC(C)=O)[C@H](C)[C@@H](O)[C@]1(C)O (stereo partly drawn) [Compound 18] | 49
30 | CC[C@H]1OC(=O)[C@H](C)[C@@H](O)[C@H](C)[C@@H](O[C@@H]2O[C@H](C)C[C@H](N(C)C(=O)c3cccnc3Cl)[C@H]2O)C(C)(O)C[C@@H](C)/C(=N\O)[C@H](C)[C@@H](O)[C@]1(C)O (stereo partly drawn) [Compound 28] | 81.7
